Laboratory results as given in ChEMBL document CHEMBL3797051 (Medchemcomm, 2016).

Tests used:
[1] = molecular target: T1, Histone deacetylase 8 (Homo sapiens, UniProt Q9BY41); assay: Inhibition of recombinant human HDAC8 expressed in Escherichia coli assessed as hydrolase activity using fluorogenic AC-LGK-tfa-AMC as substrate measured after 60 mins by fluorescence analysis
T1 sequence (Q9BY41 whole entry): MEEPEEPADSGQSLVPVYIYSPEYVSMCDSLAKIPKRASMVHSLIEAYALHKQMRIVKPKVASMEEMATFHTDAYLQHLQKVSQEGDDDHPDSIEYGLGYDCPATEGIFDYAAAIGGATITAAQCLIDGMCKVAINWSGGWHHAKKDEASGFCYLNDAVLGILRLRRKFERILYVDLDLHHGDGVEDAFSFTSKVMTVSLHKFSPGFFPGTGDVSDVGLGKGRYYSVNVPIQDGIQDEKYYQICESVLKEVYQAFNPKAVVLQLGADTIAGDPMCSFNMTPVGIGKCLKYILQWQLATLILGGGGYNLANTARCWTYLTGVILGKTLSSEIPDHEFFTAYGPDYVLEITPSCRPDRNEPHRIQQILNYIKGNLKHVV

[2] = molecular target: T2, Protein deacetylase HDAC6 (Homo sapiens, UniProt Q9UBN7); assay: Inhibition of His-tagged recombinant human HDAC6 expressed in insect cells assessed as hydrolase activity using fluorogenic AC-LGK-ac-AMC as substrate measured after 60 mins by fluorescence analysis
T2 sequence (Q9UBN7 whole entry): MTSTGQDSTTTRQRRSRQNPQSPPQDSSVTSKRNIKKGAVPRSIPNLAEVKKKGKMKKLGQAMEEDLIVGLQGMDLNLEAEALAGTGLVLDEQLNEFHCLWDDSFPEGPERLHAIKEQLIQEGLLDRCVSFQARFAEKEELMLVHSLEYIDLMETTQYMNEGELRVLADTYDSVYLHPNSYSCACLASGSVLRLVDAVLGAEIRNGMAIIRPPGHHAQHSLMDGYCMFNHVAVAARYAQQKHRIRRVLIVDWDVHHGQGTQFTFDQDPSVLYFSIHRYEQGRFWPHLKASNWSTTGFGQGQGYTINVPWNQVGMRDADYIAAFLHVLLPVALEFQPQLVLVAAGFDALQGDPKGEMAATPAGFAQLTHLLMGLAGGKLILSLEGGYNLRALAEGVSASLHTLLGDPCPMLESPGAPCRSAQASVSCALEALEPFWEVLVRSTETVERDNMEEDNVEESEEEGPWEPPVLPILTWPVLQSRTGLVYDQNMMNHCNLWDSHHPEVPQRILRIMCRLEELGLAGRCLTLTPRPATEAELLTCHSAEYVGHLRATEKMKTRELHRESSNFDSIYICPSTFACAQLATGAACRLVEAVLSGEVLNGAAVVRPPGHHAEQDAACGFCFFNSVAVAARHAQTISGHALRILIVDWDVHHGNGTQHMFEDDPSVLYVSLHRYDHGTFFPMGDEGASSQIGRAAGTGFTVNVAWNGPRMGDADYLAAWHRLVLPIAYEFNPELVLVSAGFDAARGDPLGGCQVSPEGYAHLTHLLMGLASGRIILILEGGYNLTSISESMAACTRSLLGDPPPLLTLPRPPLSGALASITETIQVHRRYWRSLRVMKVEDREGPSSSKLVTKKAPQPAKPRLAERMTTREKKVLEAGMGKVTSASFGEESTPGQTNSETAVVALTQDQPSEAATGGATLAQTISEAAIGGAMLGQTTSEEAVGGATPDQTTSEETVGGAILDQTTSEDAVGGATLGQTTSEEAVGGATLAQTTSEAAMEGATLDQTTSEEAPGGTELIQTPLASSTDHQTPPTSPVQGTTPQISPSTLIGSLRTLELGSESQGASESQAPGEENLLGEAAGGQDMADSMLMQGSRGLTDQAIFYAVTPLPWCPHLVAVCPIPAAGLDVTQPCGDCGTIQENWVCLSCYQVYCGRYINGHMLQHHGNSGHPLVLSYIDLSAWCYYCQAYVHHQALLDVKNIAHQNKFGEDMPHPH

[3] = molecular target: Histone deacetylase 4 (Homo sapiens, UniProt P56524); assay: Inhibition of N-terminal GST-tagged recombinant human HDAC4 assessed as hydrolase activity using fluorogenic […] as substrate measured after 60 mins by fluorescence analysis
[4] = molecular target: T1, Histone deacetylase 8; assay: Inhibition of recombinant human HDAC8 expressed in Escherichia coli assessed as inhibition constant ki,1 using fluorogenic AC-LGK-tfa-AMC as substrate measured after 60 mins by fluorescence analysis

Histone deacetylase 4, sequence (P56524 whole entry): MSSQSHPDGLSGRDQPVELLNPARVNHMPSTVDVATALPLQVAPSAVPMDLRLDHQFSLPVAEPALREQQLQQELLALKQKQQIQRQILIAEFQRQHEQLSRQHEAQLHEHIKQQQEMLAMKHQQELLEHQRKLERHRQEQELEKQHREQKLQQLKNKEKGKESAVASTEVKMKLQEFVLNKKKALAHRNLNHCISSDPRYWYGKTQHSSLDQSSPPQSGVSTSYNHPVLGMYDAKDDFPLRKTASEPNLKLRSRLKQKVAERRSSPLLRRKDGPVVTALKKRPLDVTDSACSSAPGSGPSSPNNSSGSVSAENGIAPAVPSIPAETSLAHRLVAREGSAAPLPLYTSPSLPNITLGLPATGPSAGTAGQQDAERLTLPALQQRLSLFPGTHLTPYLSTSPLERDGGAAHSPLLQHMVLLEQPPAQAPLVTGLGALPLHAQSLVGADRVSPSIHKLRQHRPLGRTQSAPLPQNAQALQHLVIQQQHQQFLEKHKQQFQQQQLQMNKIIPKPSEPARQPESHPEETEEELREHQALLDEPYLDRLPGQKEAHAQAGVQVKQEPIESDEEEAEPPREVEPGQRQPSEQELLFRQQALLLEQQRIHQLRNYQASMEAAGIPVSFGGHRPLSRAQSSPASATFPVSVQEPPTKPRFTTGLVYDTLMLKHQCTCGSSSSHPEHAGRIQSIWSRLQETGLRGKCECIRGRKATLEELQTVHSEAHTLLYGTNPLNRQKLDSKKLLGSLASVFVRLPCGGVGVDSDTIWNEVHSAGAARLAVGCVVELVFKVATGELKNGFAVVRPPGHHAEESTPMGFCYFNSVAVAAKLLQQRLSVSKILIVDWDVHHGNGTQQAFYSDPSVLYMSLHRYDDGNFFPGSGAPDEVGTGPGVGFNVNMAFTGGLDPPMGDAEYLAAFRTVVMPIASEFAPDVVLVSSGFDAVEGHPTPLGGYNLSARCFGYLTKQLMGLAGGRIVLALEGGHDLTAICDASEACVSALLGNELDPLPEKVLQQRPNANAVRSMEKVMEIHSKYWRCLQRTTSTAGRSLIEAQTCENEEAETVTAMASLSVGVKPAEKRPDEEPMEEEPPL

Ki [1]: 0.033 µM
Ki [2]: 4.5 µM
Ki [3]: 0.0051 µM
Ki [4]: 7.3 µM
SMILES: O=C(CCCCCCC(=O)C(F)(F)F)Nc1ccccc1
